Measured values published in ChEMBL document CHEMBL1125514, “Quantitative structure-activity relationships of N2-phenylguanines as inhibitors of herpes simplex virus thymidine kinases” (J Med Chem, 1992).

Experiments:
Thymidine kinase [1] = biological target: T1, Thymidine kinase (Human herpesvirus 1 (strain SC16) (HHV-1) (Human herpes simplex virus1), UniProt P06479); test: Inhibitory activity against HSV-1 thymidine kinase isolated from HeLa cells; type: cell-free; details: for IC50: read-out: Log 1/IC50 (converted)
T1 sequence (P06479 whole entry): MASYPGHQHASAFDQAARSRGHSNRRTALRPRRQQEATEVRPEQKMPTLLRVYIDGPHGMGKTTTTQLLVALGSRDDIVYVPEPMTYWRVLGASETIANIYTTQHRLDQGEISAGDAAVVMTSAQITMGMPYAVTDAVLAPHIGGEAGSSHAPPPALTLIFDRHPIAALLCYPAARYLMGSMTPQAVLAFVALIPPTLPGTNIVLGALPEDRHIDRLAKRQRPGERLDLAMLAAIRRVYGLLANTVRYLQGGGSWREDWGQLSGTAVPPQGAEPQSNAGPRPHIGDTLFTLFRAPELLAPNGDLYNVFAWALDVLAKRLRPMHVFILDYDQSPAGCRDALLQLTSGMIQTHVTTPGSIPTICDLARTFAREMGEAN

Thymidine kinase [2] = biological target: T2, Thymidine kinase (Human herpesvirus 2, UniProt Q6L709); test: Inhibitory activity against HSV-2 thymidine kinase isolated from HeLa cells; type: cell-free; details: read-out: Log 1/IC50 (converted)
T2 sequence (Q6L709 whole entry): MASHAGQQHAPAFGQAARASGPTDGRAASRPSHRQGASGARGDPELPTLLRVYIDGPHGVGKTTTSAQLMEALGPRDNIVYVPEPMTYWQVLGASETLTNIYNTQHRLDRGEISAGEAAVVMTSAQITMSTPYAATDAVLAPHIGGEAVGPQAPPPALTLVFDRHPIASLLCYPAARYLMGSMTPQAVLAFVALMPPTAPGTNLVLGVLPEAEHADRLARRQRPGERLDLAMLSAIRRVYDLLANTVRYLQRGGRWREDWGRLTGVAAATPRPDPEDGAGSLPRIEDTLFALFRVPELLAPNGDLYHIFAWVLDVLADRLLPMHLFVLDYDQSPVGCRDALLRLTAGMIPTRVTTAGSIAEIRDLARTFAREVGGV

SMILES	IC50 (Thymidine kinase [1])	IC50 (Thymidine kinase [2])	Log 1/IC50 (Thymidine kinase [1]; hela)
Oc1[nH]c(Nc2cccc(CCl)c2)nc2ncnc1-2	1.41 µM	1.35 µM	
Oc1[nH]c(Nc2ccc(Cl)cc2)nc2ncnc1-2	100 µM	50.1 µM	
CCCc1ccc(Nc2nc(O)c3[nH]cnc3n2)cc1	30.2 µM	46.8 µM	
NCc1cccc(Nc2nc(O)c3[nH]cnc3n2)c1	30.2 µM	20 µM	
[N-]=[N+]=NCc1cccc(Nc2nc3ncnc-3c(O)[nH]2)c1	0.794 µM	1.51 µM	
Oc1[nH]c(Nc2cccc(CBr)c2)nc2ncnc1-2	1 µM	1.2 µM	
Oc1[nH]c(Nc2cccc(I)c2)nc2ncnc1-2	1.1 µM	1.1 µM	
CC(C)c1ccc(Nc2nc(O)c3[nH]cnc3n2)cc1	200 µM	100 µM	
CCCCc1ccc(Nc2nc(O)c3[nH]cnc3n2)cc1		50.1 µM	4.3
O=c1nc(Nc2cccc(CO)c2)[nH]c2nc[nH]c12	25.1 µM	20 µM	
Oc1[nH]c(Nc2ccc(F)c(Cl)c2)nc2ncnc1-2	7.94 µM	2.51 µM	
Oc1[nH]c(Nc2ccc(F)cc2)nc2ncnc1-2	302 µM	257 µM	
O=c1[nH]c(Nc2ccc(F)c(F)c2)nc2nc[nH]c12	50.1 µM	2.19 µM	
Oc1[nH]c(Nc2ccc(Cl)c(C(F)(F)F)c2)nc2ncnc1-2	20 µM	5.01 µM	
CCCCc1ccc(Nc2nc(O)c3[nH]cnc3n2)cc1C	39.8 µM		
CCCCCc1ccc(Nc2nc(O)c3[nH]cnc3n2)cc1	501 µM	251 µM	
CCc1cccc(Nc2nc3nc[nH]c3c(=O)[nH]2)c1	2.51 µM	3.98 µM	
Cc1ccc(Nc2nc3nc[nH]c3c(=O)[nH]2)cc1	50.1 µM	6.03 µM	
O=c1[nH]c(Nc2cccc(C(F)(F)F)c2)nc2nc[nH]c12	0.151 µM	0.1 µM	
N#Cc1cccc(Nc2nc3ncnc-3c(O)[nH]2)c1	5.01 µM	0.398 µM	
Oc1[nH]c(Nc2cccc(Br)c2)nc2ncnc1-2	1.51 µM	0.603 µM	
Oc1[nH]c(Nc2ccc(I)cc2)nc2ncnc1-2	39.8 µM	8.91 µM	
Oc1[nH]c(Nc2cccc(Cl)c2)nc2ncnc1-2	1.51 µM	0.347 µM	
Oc1[nH]c(Nc2ccc(Br)cc2)nc2ncnc1-2	1 µM	0.603 µM	
O=c1[nH]c(Nc2ccc(O)cc2)nc2nc[nH]c12	141 µM	20 µM	
Oc1[nH]c(Nc2ccc3ccccc3c2)nc2ncnc1-2	39.8 µM	10 µM	
Oc1[nH]c(Nc2ccc(C(F)(F)F)cc2)nc2ncnc1-2	30.2 µM	39.8 µM	
Oc1[nH]c(Nc2ccc(Br)c(Br)c2)nc2ncnc1-2	3.02 µM	1.29 µM	
Cc1ccc(Nc2nc(O)c3[nH]cnc3n2)cc1CO	269 µM	200 µM	
